From ChEMBL document CHEMBL1126634, “Cyclic sulfolanes as novel and high affinity P2 ligands for HIV-1 protease inhibitors” (J Med Chem, 1993) come the findings set out here.

For test [1], the target named is Human immunodeficiency virus type 1 protease (Human immunodeficiency virus 1) (UniProt Q72874). In words: Antiviral potency of HIV-1 in MT-4 human T lymphoid cells with IIIb isolate. It counts as functional, cell-based.
Test [2] addresses Human immunodeficiency virus type 1 protease (Human immunodeficiency virus 1, UniProt Q72874). Kind of test: Tested against S2-binding site of HIV-1 protease.
The test system of test [3] is MT4. In words: Compound tested for the antiviral potency of HIV-1 in MT-4 human T lymphoid cells with IIIb isolate (n=5). The format is functional. The following applies: read-out: CIC95.

The IC50 is the concentration that inhibits the measured activity by half. A high value points to weaker potency.

In test [1], `CC(C)(C)NC(=O)[C@@H]1C[C@@H]2CCCC[C@@H]2CN1C[C@@H](O)[C@H](Cc1ccccc1)NC(=O)O[C@@H]1CCS(=O)(=O)C1` showed an IC95 of more than 800 nM. In addition, in test [2], the IC50 was determined as 140 nM.
On to `CC(C)(C)NC(=O)[C@@H]1C[C@@H]2CCCC[C@@H]2CN1C[C@@H](O)[C@H](Cc1ccccc1)NC(=O)O[C@H]1CCS(=O)(=O)C1`, for which the IC95 in test [3] stood at 350 nM. This compound registered an IC50 in test [2] of 75 nM.
Consider `CC(C)[C@H]1SCC[C@H]1OC(=O)N[C@@H](Cc1ccccc1)[C@H](O)CN1C[C@H]2CCCC[C@H]2C[C@H]1C(=O)NC(C)(C)C`, for which the IC50 in test [2] was determined as 9 nM.
On to `CC[C@H]1[C@@H](OC(=O)N[C@@H](Cc2ccccc2)[C@H](O)CN2C[C@H]3CCCC[C@H]3C[C@H]2C(=O)NC(C)(C)C)CCS1(=O)=O`, for which the IC95 in test [1] is 400 nM. The IC50 in test [2] is 5.4 nM.
`C[C@H]1[C@@H](OC(=O)N[C@@H](Cc2ccccc2)[C@H](O)CN2C[C@H]3CCCC[C@H]3C[C@H]2C(=O)NC(C)(C)C)CCS1(=O)=O`: in test [1], the IC95 amounted to 200 nM. For the same compound, the IC50 in test [2] was 11.4 nM.
Regarding `CC(C)(C)NC(=O)[C@@H]1C[C@@H]2CCCC[C@@H]2CN1C[C@@H](O)[C@H](Cc1ccccc1)NC(=O)O[C@H]1CCOC1`, the IC95 in test [1] worked out at 800 nM.
As for `CC(C)(C)NC(=O)[C@@H]1C[C@@H]2CCCC[C@@H]2CN1C[C@@H](O)[C@H](Cc1ccccc1)NC(=O)OCCS(C)(=O)=O`, the IC50 in test [2] was found to be 1030 nM.
The same measure, in the same setting: in the case of `NC(=O)OC[C@@H]1CCCOC1` it was 694 nM.
On to `CC(C)[C@H]1[C@@H](OC(=O)N[C@@H](Cc2ccccc2)[C@H](O)CN2C[C@H]3CCCC[C@H]3C[C@H]2C(=O)NC(C)(C)C)CCS1(=O)=O`, for which the IC95 in test [1] amounted to 200 nM. Further, in test [2], the IC50 was 11 nM.
Taken in the same sequence, the figures for `C[C@@H]1OCC[C@@H]1OC(=O)N[C@@H](Cc1ccccc1)[C@H](O)CN1C[C@H]2CCCC[C@H]2C[C@H]1C(=O)NC(C)(C)C` were 400 nM and 52.4 nM.
For `CC(C)[C@@H]1[C@H](OC(=O)N[C@@H](Cc2ccccc2)[C@H](O)CN2C[C@H]3CCCC[C@H]3C[C@H]2C(=O)NC(C)(C)C)CCS1(=O)=O`, in that order: 50 nM and 3 nM.
For `CC[C@@H]1[C@H](OC(=O)N[C@@H](Cc2ccccc2)[C@H](O)CN2C[C@H]3CCCC[C@H]3C[C@H]2C(=O)NC(C)(C)C)CCS1(=O)=O`, in that order: 800 nM and 13.1 nM.
`C[C@H]1OCC[C@H]1OC(=O)N[C@@H](Cc1ccccc1)[C@H](O)CN1C[C@H]2CCCC[C@H]2C[C@H]1C(=O)NC(C)(C)C`: in test [1], the IC95 was 1600 nM. In addition, the IC50 in test [2] came to 169 nM.
For `C[C@@H]1[C@H](OC(=O)N[C@@H](Cc2ccccc2)[C@H](O)CN2C[C@H]3CCCC[C@H]3C[C@H]2C(=O)NC(C)(C)C)CCS1(=O)=O`, in that order: 200 nM and 22.3 nM.
For `CC(C)C[C@H]1[C@@H](OC(=O)N[C@@H](Cc2ccccc2)[C@H](O)CN2C[C@H]3CCCC[C@H]3C[C@H]2C(=O)NC(C)(C)C)CCS1(=O)=O`, in that order: 400 nM and 12 nM.
Taken in the same sequence, the figures for `CC(C)C[C@@H]1[C@H](OC(=O)N[C@@H](Cc2ccccc2)[C@H](O)CN2C[C@H]3CCCC[C@H]3C[C@H]2C(=O)NC(C)(C)C)CCS1(=O)=O` were 1500 nM and 30 nM.
